This passage reports remaining binding results from paper PMC10174618, “Monoterpenoid aryl hydrocarbon receptor allosteric antagonists protect against ultraviolet skin damage in female mice” (Nature Communications, 2023).

Common to all, as to assay: biochemical
Parameters in all cases: KINOMEscan scanMAX active site-directed competition binding assay, percent of control, 468 kinases
What all share (details): competition binding, percent of control

In experiment [1] the target is T1, RSK3(Kin.Dom.1-N-terminal) (Homo sapiens, UniProt Q15349).
T1 construct: gene RPS6KA2; Kin.Dom.1-N-terminal
An outline of the steps:
(§1)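 KINOMEscan active site-directed competition binding assay against 468 human kinases with 100 μM S-carvone. Binding expressed as % of control, with 35% of control as the inhibition threshold.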

A further experiment addresses PRKCE (Homo sapiens, UniProt Q02156). An outline of the steps: as §1
For a further experiment, the target named is T2, OSR1 (Homo sapiens, UniProt O95747).
T2 construct: gene OXSR1
An outline of the steps:
as §1

The target in another experiment is BUB1 (Homo sapiens, UniProt O43683). In outline: as §1
Experiment [2] concerns the target T3, RPS6KA4(Kin.Dom.2-C-terminal) (Homo sapiens, UniProt O75676).
T3 construct: Kin.Dom.2-C-terminal
An outline of the steps:
as §1

For the next experiment, the target named is DYRK1B (Homo sapiens, UniProt Q9Y463). In outline: as §1
Chain of DYRK1B (Q9Y463 whole entry): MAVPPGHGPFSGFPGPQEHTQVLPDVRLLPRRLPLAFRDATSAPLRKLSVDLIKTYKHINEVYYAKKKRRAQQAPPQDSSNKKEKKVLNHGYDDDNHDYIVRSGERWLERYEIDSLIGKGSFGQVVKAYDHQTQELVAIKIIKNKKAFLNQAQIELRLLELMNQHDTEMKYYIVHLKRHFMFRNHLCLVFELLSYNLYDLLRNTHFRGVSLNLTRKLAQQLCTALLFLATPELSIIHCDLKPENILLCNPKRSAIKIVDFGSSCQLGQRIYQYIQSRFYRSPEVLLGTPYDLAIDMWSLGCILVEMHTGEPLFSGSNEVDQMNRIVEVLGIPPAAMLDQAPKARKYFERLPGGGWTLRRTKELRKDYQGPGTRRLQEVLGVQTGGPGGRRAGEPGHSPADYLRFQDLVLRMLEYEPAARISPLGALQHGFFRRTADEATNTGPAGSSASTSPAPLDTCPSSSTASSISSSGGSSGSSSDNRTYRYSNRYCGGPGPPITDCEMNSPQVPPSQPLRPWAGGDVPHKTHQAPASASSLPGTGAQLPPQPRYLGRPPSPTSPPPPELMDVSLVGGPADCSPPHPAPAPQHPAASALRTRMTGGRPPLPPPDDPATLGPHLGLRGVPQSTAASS
A further experiment has as its target SYK (Homo sapiens, UniProt P43405). An outline of the steps: as §1
Another experiment concerns the target T4, MEK4 (Homo sapiens, UniProt P45985).
T4 construct: gene MAP2K4
An outline of the steps: as §1

A further experiment addresses MYO3A (Homo sapiens, UniProt Q8NEV4). An outline of the steps: as §1
Another experiment deals with T5, PYK2 (Homo sapiens, UniProt Q14289).
T5 construct: gene PTK2B
In outline:
as §1

For experiment [3], the target named is T6, JAK1(JH1domain-catalytic) (Homo sapiens, UniProt P23458).
T6 construct: JH1domain-catalytic
T6 sequence (P23458 whole entry): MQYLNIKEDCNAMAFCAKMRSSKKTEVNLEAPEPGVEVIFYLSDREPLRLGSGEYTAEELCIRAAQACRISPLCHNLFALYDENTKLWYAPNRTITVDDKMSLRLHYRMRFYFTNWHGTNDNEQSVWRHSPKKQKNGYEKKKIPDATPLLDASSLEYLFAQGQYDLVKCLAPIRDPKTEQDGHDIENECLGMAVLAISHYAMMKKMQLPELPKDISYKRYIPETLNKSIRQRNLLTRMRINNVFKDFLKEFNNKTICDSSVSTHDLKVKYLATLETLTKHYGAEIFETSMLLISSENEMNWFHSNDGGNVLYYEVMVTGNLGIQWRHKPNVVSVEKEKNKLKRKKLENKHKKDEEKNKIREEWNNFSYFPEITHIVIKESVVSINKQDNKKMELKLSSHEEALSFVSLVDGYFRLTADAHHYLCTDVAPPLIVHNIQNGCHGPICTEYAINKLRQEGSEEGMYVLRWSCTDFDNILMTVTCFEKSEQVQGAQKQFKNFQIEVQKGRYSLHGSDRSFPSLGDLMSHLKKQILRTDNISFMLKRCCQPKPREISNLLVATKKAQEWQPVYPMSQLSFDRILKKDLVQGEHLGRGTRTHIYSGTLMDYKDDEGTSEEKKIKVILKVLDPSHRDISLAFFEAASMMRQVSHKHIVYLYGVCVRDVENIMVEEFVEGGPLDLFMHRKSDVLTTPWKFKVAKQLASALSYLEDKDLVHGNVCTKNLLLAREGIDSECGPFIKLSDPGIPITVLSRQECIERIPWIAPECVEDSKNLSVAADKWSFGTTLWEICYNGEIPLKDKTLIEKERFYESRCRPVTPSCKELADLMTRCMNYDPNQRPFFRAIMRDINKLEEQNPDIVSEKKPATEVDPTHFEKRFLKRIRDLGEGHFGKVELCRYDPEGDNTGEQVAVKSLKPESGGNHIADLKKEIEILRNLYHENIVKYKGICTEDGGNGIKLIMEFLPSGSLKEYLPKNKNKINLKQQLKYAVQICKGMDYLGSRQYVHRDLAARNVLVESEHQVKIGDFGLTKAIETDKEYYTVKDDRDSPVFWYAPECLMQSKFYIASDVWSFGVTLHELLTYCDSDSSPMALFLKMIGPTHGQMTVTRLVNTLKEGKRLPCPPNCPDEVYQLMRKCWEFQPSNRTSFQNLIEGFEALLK
An outline of the steps: as §1

Experiment [4] addresses T7, ABL1(Q252H)-nonphosphorylated (Homo sapiens, UniProt P00519, Q252H).
T7 construct: nonphosphorylated
In outline: as §1

The target in a further experiment is WNK3 (Homo sapiens, UniProt Q9BYP7). In outline:
as §1

In experiment [5] the target is T8, RPS6KA5(Kin.Dom.1-N-terminal) (Homo sapiens, UniProt O75582).
T8 construct: Kin.Dom.1-N-terminal
T8 sequence (O75582 whole entry): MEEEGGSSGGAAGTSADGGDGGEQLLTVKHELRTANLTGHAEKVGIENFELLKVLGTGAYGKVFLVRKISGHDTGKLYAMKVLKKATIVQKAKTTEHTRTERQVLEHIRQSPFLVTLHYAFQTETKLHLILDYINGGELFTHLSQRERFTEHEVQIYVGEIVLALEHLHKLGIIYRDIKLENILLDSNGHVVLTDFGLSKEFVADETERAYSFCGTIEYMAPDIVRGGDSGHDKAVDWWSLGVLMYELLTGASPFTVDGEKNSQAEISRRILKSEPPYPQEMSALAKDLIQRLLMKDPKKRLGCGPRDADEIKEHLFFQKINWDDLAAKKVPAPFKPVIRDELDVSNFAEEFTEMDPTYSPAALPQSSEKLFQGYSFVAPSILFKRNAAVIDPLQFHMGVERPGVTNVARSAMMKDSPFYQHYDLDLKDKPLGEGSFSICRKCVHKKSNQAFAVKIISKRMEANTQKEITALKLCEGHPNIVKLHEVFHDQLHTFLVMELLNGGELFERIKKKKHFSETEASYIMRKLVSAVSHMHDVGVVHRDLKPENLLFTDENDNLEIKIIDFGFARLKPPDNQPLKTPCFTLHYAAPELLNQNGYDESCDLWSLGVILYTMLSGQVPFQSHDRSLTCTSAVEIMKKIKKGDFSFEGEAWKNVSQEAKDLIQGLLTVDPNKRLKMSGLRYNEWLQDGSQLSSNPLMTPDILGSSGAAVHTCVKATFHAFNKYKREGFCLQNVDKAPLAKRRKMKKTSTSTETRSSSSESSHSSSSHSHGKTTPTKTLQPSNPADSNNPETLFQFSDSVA
In outline: as §1

In the next experiment the target is FLT3(ITD,D835V) (Homo sapiens, UniProt P36888, D835V/ITD). In outline: as §1
For the next experiment, the target named is CDK3 (Homo sapiens, UniProt Q00526). In outline: as §1
In the next experiment the target is EPHB1 (Homo sapiens, UniProt P54762). An outline of the steps:
as §1

The next experiment has as its target FYN (Homo sapiens, UniProt P06241). An outline of the steps: as §1
The target in another experiment is T9, MST1 (Homo sapiens, UniProt Q13043).
T9 construct: gene STK4
T9 sequence (Q13043 whole entry): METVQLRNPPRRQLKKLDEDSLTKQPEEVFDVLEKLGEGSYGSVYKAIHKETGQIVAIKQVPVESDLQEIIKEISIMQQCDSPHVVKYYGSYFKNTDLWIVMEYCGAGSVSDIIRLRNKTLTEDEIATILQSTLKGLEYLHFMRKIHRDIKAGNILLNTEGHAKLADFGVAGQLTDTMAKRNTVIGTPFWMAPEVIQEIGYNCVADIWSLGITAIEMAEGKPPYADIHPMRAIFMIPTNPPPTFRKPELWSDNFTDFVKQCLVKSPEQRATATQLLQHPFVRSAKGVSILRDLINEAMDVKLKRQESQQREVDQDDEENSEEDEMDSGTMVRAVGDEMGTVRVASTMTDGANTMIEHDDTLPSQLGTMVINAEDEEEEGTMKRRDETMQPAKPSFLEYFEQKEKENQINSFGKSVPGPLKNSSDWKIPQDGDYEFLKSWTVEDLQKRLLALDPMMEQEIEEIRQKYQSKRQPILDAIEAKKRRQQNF
An outline of the steps:
as §1

A further experiment deals with T10, CDC2L2 (Homo sapiens, UniProt Q9UQ88).
T10 construct: gene CDK11A
In outline:
as §1

The next experiment concerns the target KIT(L576P) (Homo sapiens, UniProt P10721, L576P). In outline:
as §1

Chain of FYN (P06241 whole entry): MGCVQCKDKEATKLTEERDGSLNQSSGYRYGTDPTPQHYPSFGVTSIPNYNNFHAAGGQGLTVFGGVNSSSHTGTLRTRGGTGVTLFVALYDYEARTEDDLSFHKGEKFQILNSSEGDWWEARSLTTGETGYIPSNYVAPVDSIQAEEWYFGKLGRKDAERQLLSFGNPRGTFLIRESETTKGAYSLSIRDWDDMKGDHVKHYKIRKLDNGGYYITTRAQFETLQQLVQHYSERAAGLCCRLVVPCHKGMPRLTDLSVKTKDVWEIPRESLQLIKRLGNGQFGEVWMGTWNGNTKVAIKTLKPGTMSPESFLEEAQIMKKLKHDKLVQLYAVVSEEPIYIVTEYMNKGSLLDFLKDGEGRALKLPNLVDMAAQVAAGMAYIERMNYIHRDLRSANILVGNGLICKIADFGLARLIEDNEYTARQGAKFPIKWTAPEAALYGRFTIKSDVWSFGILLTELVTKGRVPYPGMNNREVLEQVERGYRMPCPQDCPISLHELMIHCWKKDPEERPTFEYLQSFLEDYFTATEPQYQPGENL
Chain of EPHB1 (P54762 whole entry): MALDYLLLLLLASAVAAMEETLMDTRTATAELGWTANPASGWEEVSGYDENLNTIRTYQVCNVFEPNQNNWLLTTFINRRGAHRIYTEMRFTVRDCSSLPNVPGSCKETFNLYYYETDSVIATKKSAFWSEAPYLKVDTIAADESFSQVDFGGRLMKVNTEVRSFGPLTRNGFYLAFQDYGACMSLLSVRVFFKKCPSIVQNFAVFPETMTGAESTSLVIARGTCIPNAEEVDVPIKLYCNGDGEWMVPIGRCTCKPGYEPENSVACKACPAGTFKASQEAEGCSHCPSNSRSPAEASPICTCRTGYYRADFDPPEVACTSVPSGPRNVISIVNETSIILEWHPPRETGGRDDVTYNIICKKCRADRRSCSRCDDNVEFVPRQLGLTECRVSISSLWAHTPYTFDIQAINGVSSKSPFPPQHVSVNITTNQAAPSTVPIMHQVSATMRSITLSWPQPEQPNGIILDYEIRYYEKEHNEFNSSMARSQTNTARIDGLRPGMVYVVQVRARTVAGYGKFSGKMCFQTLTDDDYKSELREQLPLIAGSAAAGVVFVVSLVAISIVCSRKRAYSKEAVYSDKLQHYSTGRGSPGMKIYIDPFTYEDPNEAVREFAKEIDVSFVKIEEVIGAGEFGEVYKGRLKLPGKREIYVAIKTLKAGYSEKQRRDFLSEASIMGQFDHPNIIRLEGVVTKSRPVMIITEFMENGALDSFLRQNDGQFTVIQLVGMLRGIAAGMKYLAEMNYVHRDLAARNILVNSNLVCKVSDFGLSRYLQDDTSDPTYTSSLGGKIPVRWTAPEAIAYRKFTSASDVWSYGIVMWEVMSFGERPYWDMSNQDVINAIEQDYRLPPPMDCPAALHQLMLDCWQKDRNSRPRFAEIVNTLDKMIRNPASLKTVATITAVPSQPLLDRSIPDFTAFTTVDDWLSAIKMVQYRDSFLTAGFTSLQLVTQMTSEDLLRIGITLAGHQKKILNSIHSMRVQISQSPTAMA
T4 sequence (P45985 whole entry): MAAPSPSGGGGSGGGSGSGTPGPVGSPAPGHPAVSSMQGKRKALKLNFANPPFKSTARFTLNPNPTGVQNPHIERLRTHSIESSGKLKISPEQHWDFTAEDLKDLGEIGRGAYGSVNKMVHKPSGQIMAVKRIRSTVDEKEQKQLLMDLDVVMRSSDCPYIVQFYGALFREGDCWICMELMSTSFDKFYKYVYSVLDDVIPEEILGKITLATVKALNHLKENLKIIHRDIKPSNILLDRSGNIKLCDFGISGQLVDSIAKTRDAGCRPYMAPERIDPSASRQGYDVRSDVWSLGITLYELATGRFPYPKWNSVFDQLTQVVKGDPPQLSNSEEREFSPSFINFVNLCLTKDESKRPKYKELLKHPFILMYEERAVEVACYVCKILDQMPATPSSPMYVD

Consider `C=C(C)[C@H]1CC=C(C)C(=O)C1` [S-carvone], for which the remaining binding at 100 µM in experiment [1] was 94%; at PRKCE it was 94%; on OSR1, 78%; on BUB1, 85%; in experiment [2], 75%; on DYRK1B, 100%. Also, the remaining binding at 100 µM on SYK was 75%; on MEK4, 74%; at MYO3A it was 95%; on PYK2, 80%; in experiment [3], 100%; in experiment [4] it was 66%. The remaining binding at 100 µM on WNK3 came to 100%; in experiment [5] it was 84%; at FLT3(ITD,D835V) it was 85%; on CDK3, 92%; at EPHB1 it was 88%; on FYN it was 90%. Moreover, the remaining binding at 100 µM was 81% at MST1, 82% on CDC2L2 and 71% on KIT(L576P).
